Where two headings read alike, the source gives them in different places.

These results are taken from patent US10206394B2, “Herbicidal compounds” (Syngenta Participations AG, priority 2014, dated 2019).

Common to all, as to experiment: Glasshouse assay for herbicidal activity (pre- and post-emergence), percentage phytotoxicity
Holding throughout (assay type): in vivo

Assay [1] has as its system Alopecurus myosuroides (ALOMY). Particulars: Alopecurus myosuroides. A digest of the protocol:
(§1)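 Seeds were sown in standard soil in pots and grown one day (pre-emergence) or about 12 days (post-emergence) before herbicide application. Plants were kept at 24/18 °C (warm-climate) or 20/16 °C (cool-climate) day/night, 16 h light, 65% humidity, watered twice daily, and damage was scored visually at 15 DAA (POST) or 20 DAA (PRE).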

Another assay has as its system Avena fatua (AVEFA). Particulars: Avena fatua. In short, it runs like this: as §1
For assay [2], the system named is Echinochloa crus-galli (ECHCG). The note with it: Echinochloa crus-galli. A digest of the protocol:
as §1

A further assay concerns Lolium perenne (LOLPE). The note with it: Lolium perenne. In short, it runs like this: as §1
Setting [3] is: post-emergence, 360 h, 250 g/ha, post-emergence, 15 DAA, visual assessment (100%=total damage, 0%=no damage), read-out: Post-emergence herbicidal activity (percentage phytotoxicity) ALOMY POST.
[4] abbreviates: pre-emergence, 480 h, 250 g/ha, pre-emergence, 20 DAA, visual assessment (100%=total damage, 0%=no damage), read-out: Pre-emergence herbicidal activity (percentage phytotoxicity) ALOMY PRE.
The mark [5] stands for this setting: post-emergence, 360 h, 250 g/ha, post-emergence, 15 DAA, visual assessment (100%=total damage, 0%=no damage), read-out: Post-emergence herbicidal activity (percentage phytotoxicity) AVEFA POST.
Where [6] appears, read: pre-emergence, 480 h, 250 g/ha, pre-emergence, 20 DAA, visual assessment (100%=total damage, 0%=no damage), read-out: Pre-emergence herbicidal activity (percentage phytotoxicity) AVEFA PRE.
[7] abbreviates: post-emergence, 360 h, 250 g/ha, post-emergence, 15 DAA, visual assessment (100%=total damage, 0%=no damage), read-out: Post-emergence herbicidal activity (percentage phytotoxicity) ECHCG POST.
Where [8] appears, read: pre-emergence, 480 h, 250 g/ha, pre-emergence, 20 DAA, visual assessment (100%=total damage, 0%=no damage), read-out: Pre-emergence herbicidal activity (percentage phytotoxicity) ECHCG PRE.
Setting [9] is: post-emergence, 360 h, 250 g/ha, post-emergence, 15 DAA, visual assessment (100%=total damage, 0%=no damage), read-out: Post-emergence herbicidal activity (percentage phytotoxicity) LOLPE POST.
Setting [10] is: pre-emergence, 480 h, 250 g/ha, pre-emergence, 20 DAA, visual assessment (100%=total damage, 0%=no damage), read-out: Pre-emergence herbicidal activity (percentage phytotoxicity) LOLPE PRE.
Setting [11] is: post-emergence, 360 h, POST-emergence, rate 250 g/ha, visual score 15 DAA (100%=total damage, 0%=no damage), read-out: Post-emergence herbicidal activity (percentage phytotoxicity) ALOMY POST.
[12] abbreviates: pre-emergence, 480 h, PRE-emergence, rate 250 g/ha, visual score 20 DAA (100%=total damage, 0%=no damage), read-out: Pre-emergence herbicidal activity (percentage phytotoxicity) ALOMY PRE.
[13] abbreviates: post-emergence, 360 h, POST-emergence, rate 250 g/ha, visual score 15 DAA (100%=total damage, 0%=no damage), read-out: Post-emergence herbicidal activity (percentage phytotoxicity) AVEFA POST.
Setting [14] is: pre-emergence, 480 h, PRE-emergence, rate 250 g/ha, visual score 20 DAA (100%=total damage, 0%=no damage), read-out: Pre-emergence herbicidal activity (percentage phytotoxicity) AVEFA PRE.
Setting [15] is: post-emergence, 360 h, POST-emergence, rate 250 g/ha, visual score 15 DAA (100%=total damage, 0%=no damage), read-out: Post-emergence herbicidal activity (percentage phytotoxicity) ECHCG POST.
[16] abbreviates: pre-emergence, 480 h, PRE-emergence, rate 250 g/ha, visual score 20 DAA (100%=total damage, 0%=no damage), read-out: Pre-emergence herbicidal activity (percentage phytotoxicity) ECHCG PRE.
Setting [17] is: post-emergence, 360 h, POST-emergence, rate 250 g/ha, visual score 15 DAA (100%=total damage, 0%=no damage), read-out: Post-emergence herbicidal activity (percentage phytotoxicity) LOLPE POST.
The mark [18] stands for this setting: pre-emergence, 480 h, PRE-emergence, rate 250 g/ha, visual score 20 DAA (100%=total damage, 0%=no damage), read-out: Pre-emergence herbicidal activity (percentage phytotoxicity) LOLPE PRE.

On to `Cc1cc(-c2ncc(C#N)cc2Cl)cc(C)c1C1C(=O)CC(CC(=O)NC(C)(C)C)C1=O` (stereo not shown) [Compound B83], for which the pest or weed control at 250 g/ha was determined as 70% in assay [1] (setting [3]); 80% in assay [1] (setting [4]); 80% in the assay with Avena fatua (AVEFA) (setting [5]); 30% in the assay with Avena fatua (AVEFA) (setting [6]); 90% in assay [2] (setting [7]); 90% in assay [2] (setting [8]). In addition, the pest or weed control at 250 g/ha in the assay on Lolium perenne (LOLPE) (setting [9]) and in the assay on Lolium perenne (LOLPE) (setting [10]) was 80% each time.
On to `Cc1cc(-c2ncc(F)cc2F)cc(C)c1C1C(=O)CC(CC(=O)NCc2ccc(C#N)cn2)C1=O` (stereo not shown) [Compound B202], for which the pest or weed control at 250 g/ha in assay [1] (setting [11]) turned out to be 90%; in assay [1] (setting [12]), 80%; in the assay on Avena fatua (AVEFA) (setting [13]), 80%; with Avena fatua (AVEFA) (setting [14]), 70%; in assay [2] (setting [15]), 90%; in assay [2] (setting [16]), 70%. In addition, the pest or weed control at 250 g/ha in the assay on Lolium perenne (LOLPE) (setting [17]) came out at 70%; in the assay with Lolium perenne (LOLPE) (setting [18]) it was 60%.
With `Cc1cc(-n2cc(Cl)cn2)cc(C)c1C1C(=O)CC(CC(=O)N(C)C(C)(C)C)C1=O` (stereo not shown) [Compound B229], the pest or weed control at 250 g/ha in assay [1] (setting [11]) amounted to 80%; in assay [1] (setting [12]) it was 90%; in the assay with Avena fatua (AVEFA) (setting [13]) it was 80%; with Avena fatua (AVEFA) (setting [14]), 90%; in assay [2] (setting [15]), 100%; in assay [2] (setting [16]) it was 100%. For the same compound, the pest or weed control at 250 g/ha in the assay with Lolium perenne (LOLPE) (setting [17]) was 70%; with Lolium perenne (LOLPE) (setting [18]) it was 90%.
Consider `Cc1cc(C)c(C2C(=O)CC(CC(=O)NC3CC(F)C3)C2=O)c(C)c1` (stereo not shown) [Compound A181], for which the pest or weed control at 250 g/ha in assay [1] (post-emergence, 360 h, post-emergence, 250 g/ha, 15 DAA, visual score (100%=total damage; 0%=no damage), read-out: ALOMY POST herbicidal activity (percentage phytotoxicity)) was determined as 90%; in assay [1] (pre-emergence, 480 h, pre-emergence, 250 g/ha, 20 DAA, visual score (100%=total damage; 0%=no damage), read-out: ALOMY PRE herbicidal activity (percentage phytotoxicity)), 90%; with Avena fatua (AVEFA) (post-emergence, 360 h, post-emergence, 250 g/ha, 15 DAA, visual score (100%=total damage; 0%=no damage), read-out: AVEFA POST herbicidal activity (percentage phytotoxicity)), 90%; with Avena fatua (AVEFA) (pre-emergence, 480 h, pre-emergence, 250 g/ha, 20 DAA, visual score (100%=total damage; 0%=no damage), read-out: AVEFA PRE herbicidal activity (percentage phytotoxicity)) it was 90%; in assay [2] (post-emergence, 360 h, post-emergence, 250 g/ha, 15 DAA, visual score (100%=total damage; 0%=no damage), read-out: ECHCG POST herbicidal activity (percentage phytotoxicity)), 80%; in assay [2] (pre-emergence, 480 h, pre-emergence, 250 g/ha, 20 DAA, visual score (100%=total damage; 0%=no damage), read-out: ECHCG PRE herbicidal activity (percentage phytotoxicity)), 90%. Moreover, the pest or weed control at 250 g/ha was found to be 100% in the assay with Lolium perenne (LOLPE) (post-emergence, 360 h, post-emergence, 250 g/ha, 15 DAA, visual score (100%=total damage; 0%=no damage), read-out: LOLPE POST herbicidal activity (percentage phytotoxicity)) and 100% in the assay with Lolium perenne (LOLPE) (pre-emergence, 480 h, pre-emergence, 250 g/ha, 20 DAA, visual score (100%=total damage; 0%=no damage), read-out: LOLPE PRE herbicidal activity (percentage phytotoxicity)).
For `C#CCNC(=O)CC1CC(=O)C(c2c(C)cc(C)cc2C)C1=O` (stereo not shown) [Compound A10], the pest or weed control at 250 g/ha in assay [1] (post-emergence, 360 h, Rate 250 g/ha, post-emergence, assessed visually 15 DAA, 100%=total damage, 0%=no damage, read-out: Post-emergence herbicidal activity (percentage phytotoxicity) ALOMY POST) is 80%; in assay [1] (pre-emergence, 480 h, Rate 250 g/ha, pre-emergence, assessed visually 20 DAA, 100%=total damage, 0%=no damage, read-out: Pre-emergence herbicidal activity (percentage phytotoxicity) ALOMY PRE), 70%; with Avena fatua (AVEFA) (post-emergence, 360 h, Rate 250 g/ha, post-emergence, assessed visually 15 DAA, 100%=total damage, 0%=no damage, read-out: Post-emergence herbicidal activity (percentage phytotoxicity) AVEFA POST) it was 60%; with Avena fatua (AVEFA) (pre-emergence, 480 h, Rate 250 g/ha, pre-emergence, assessed visually 20 DAA, 100%=total damage, 0%=no damage, read-out: Pre-emergence herbicidal activity (percentage phytotoxicity) AVEFA PRE), 70%; in assay [2] (post-emergence, 360 h, Rate 250 g/ha, post-emergence, assessed visually 15 DAA, 100%=total damage, 0%=no damage, read-out: Post-emergence herbicidal activity (percentage phytotoxicity) ECHCG POST), 90%; in assay [2] (pre-emergence, 480 h, Rate 250 g/ha, pre-emergence, assessed visually 20 DAA, 100%=total damage, 0%=no damage, read-out: Pre-emergence herbicidal activity (percentage phytotoxicity) ECHCG PRE) it was 90%. Moreover, the pest or weed control at 250 g/ha stood at 90% in the assay with Lolium perenne (LOLPE) (post-emergence, 360 h, Rate 250 g/ha, post-emergence, assessed visually 15 DAA, 100%=total damage, 0%=no damage, read-out: Post-emergence herbicidal activity (percentage phytotoxicity) LOLPE POST) and 90% in the assay with Lolium perenne (LOLPE) (pre-emergence, 480 h, Rate 250 g/ha, pre-emergence, assessed visually 20 DAA, 100%=total damage, 0%=no damage, read-out: Pre-emergence herbicidal activity (percentage phytotoxicity) LOLPE PRE).
Regarding `CCN(C)C(=O)CC1CC(=O)C(c2c(C)cc(OCC(F)(F)F)cc2C)C1=O` (stereo not shown) [Compound B211], the pest or weed control at 250 g/ha stood at 90% in assay [1] (setting [11]); 90% in assay [1] (setting [12]); 90% in the assay with Avena fatua (AVEFA) (setting [13]); 80% in the assay with Avena fatua (AVEFA) (setting [14]); 100% in assay [2] (setting [15]); 100% in assay [2] (setting [16]). The pest or weed control at 250 g/ha in the assay with Lolium perenne (LOLPE) (setting [17]) was 90%.
With `CC#Cc1cc(C)c(C2C(=O)CC(CC(=O)NCc3cccc(F)c3)C2=O)c(C)c1` (stereo not shown) [Compound B183], the pest or weed control at 250 g/ha in assay [1] (setting [11]) is 100%; in assay [1] (setting [12]), 100%; in the assay with Avena fatua (AVEFA) (setting [13]), 100%; in the assay with Avena fatua (AVEFA) (setting [14]), 90%; in assay [2] (setting [15]), 100%; in assay [2] (setting [16]), 100%. Moreover, the pest or weed control at 250 g/ha turned out to be 90% with Lolium perenne (LOLPE) (setting [17]) and 100% in the assay with Lolium perenne (LOLPE) (setting [18]).
Consider `Cc1cc(C)c(C2C(=O)CC(CC(=O)NCC(F)(F)F)C2=O)c(C)c1` (stereo not shown) [Compound B59], for which the pest or weed control at 250 g/ha in assay [1] (setting [3]) came out at 70%; in assay [1] (setting [4]), 70%; in the assay on Avena fatua (AVEFA) (setting [5]) it was 70%; with Avena fatua (AVEFA) (setting [6]) it was 30%; in assay [2] (setting [7]), 80%; in assay [2] (setting [8]) it was 90%. In addition, the figures for the pest or weed control at 250 g/ha in the assay with Lolium perenne (LOLPE) (setting [9]) and in the assay on Lolium perenne (LOLPE) (setting [10]) were 80% and 90%, respectively.
In the case of `COCCN(CCOC)C(=O)CC1CC(=O)C(c2c(C)cc(-c3ncc(F)cc3F)cc2C)C1=O` (stereo not shown) [Compound B266], the pest or weed control at 250 g/ha in assay [1] (setting [11]) was 100%; in assay [1] (setting [12]), 100%; with Avena fatua (AVEFA) (setting [13]), 100%; in the assay with Avena fatua (AVEFA) (setting [14]), 40%; in assay [2] (setting [15]), 100%; in assay [2] (setting [16]) it was 100%. Also, the pest or weed control at 250 g/ha in the assay on Lolium perenne (LOLPE) (setting [17]) came to 80%; in the assay on Lolium perenne (LOLPE) (setting [18]), 90%.
For `Cc1cc(C)c(C2C(=O)CC(CC(=O)NCc3cccc(C)n3)C2=O)c(C)c1` (stereo not shown) [Compound B68], the pest or weed control at 250 g/ha in assay [1] (setting [3]) worked out at 90%; in assay [1] (setting [4]), 80%; in the assay on Avena fatua (AVEFA) (setting [5]), 80%; in the assay on Avena fatua (AVEFA) (setting [6]) it was 10%; in assay [2] (setting [7]), 70%; in assay [2] (setting [8]) it was 80%. Besides, the pest or weed control at 250 g/ha was found to be 70% in the assay with Lolium perenne (LOLPE) (setting [9]) and 80% in the assay with Lolium perenne (LOLPE) (setting [10]).
